For 26 molecules, Ki results are on record in patent publication US20240254115A1 (ACONDICIONAMIENTO TARRASENSE, priority 2021, published 2024).

SMILES strings stand for the structures.

Assay [1] has as its target T1, human σ1 receptor (Homo sapiens, UniProt Q99720).
T1 construct: expressed in transfected cells; host or cells: HEK-293
In words: Human σ1 receptor radioligand assay. Particulars: transfected HEK-293 membranes, 5 nM [3H](+)-pentazocine, 37° C. 120 minutes; + may also stand for 1-50% inhibition at 1 or 10 μM; read-out: Binding σ-1 Ki. On the procedure: Human σ1 Receptor Radioligand Assay
Transfected HEK-293 membranes (7 μg) were incubated with 5 nM of [^3H](+)-pentazocine in assay buffer containing Tris-HCl 50 mM at pH 8. NBS (non-specific binding) was measured by adding 10 μM haloperidol. The binding of the test compound was measured at either one concentration (% inhibition at 1 or 10 μM) or five different concentrations to determine affinity values (Ki). Plates were incubated at 37° C. for 120 minutes. After the incubation period, the reaction mix was then transferred to MultiScreen HTS, FC plates (Millipore), filtered and plates were washed 3 times with ice-cold 10 mM Tris-HCL (pH7.4). Filters were dried and counted at approximately 40% efficiency in a MicroBeta scintillation counter (Perkin-Elmer) using EcoScint liquid scintillation cocktail.

Assay [2] deals with T2, human σ2/TMEM97 receptor (Homo sapiens, UniProt Q5BJF2).
T2 construct: expressed in transfected cells; host or cells: HEK-293
As to the kind of experiment: Binding assay to human σ2/TMEM97 receptor. Particulars: transfected HEK-293 membranes, 10 nM [3H]-DTG, 25° C. 120 minutes; + may also stand for 1-50% inhibition at 1 or 10 μM; read-out: Binding σ-2 Ki. Here is the method:
Binding Assay to Human σ2/TMEM97 Receptor
Transfected HEK-293 membranes (15 μg) were incubated with 10 nM [^3H]-1,3-Di-o-tolylguanidine (DTG) in assay buffer containing Tris-HCl 50 mM at pH 8.0. NSB (non-specific binding) was measured by adding 10 μM haloperidol. The binding of the test compound was measured at either one concentration (% inhibition at 1 or 10 μM) or five different concentrations to determine affinity values (Ki). Plates were incubated at 25° C. for 120 minutes. After the incubation period, the reaction mix was transferred to MultiScreen HTS, FC plates (Millipore), filtered and washed 3 times with ice-cold 10 mM Tris-HCL (pH 8.0). Filters were dried and counted at approximately 40% efficiency in a MicroBeta scintillation counter (Perkin-Elmer) using EcoScint liquid scintillation cocktail.

T1 sequence (Q99720 whole entry): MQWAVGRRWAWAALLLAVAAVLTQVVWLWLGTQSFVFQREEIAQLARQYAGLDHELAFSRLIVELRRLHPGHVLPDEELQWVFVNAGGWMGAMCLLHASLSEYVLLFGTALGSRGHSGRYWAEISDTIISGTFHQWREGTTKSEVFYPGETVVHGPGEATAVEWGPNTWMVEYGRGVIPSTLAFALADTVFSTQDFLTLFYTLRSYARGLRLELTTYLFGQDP
T2 sequence (Q5BJF2 whole entry): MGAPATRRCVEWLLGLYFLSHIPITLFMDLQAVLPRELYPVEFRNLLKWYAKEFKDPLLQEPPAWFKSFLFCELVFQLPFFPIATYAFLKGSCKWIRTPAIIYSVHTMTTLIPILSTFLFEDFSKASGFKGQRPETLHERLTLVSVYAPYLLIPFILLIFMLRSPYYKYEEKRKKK

In the case of `CN(Cc1cccnc1)[C@H]1CC[C@H](NS(=O)(=O)c2ccc(N3CCOCC3)nc2)CC1` [Example 59, N-((1r,4r)-4-(Methyl(pyridin-3-ylmethyl)amino)cyclohexyl)-6-morpholinopyridine-3-sulfonamide], the Ki in assay [1] and in assay [2] was more than 1000 nM in each case.

With `CN(Cc1ccncc1)[C@H]1CC[C@H](NS(=O)(=O)c2ccc(N3CCOCC3)nc2)CC1` [Example 60, N-((1r,4r)-4-(Methyl(pyridin-4-ylmethyl)amino)cyclohexyl)-6-morpholinopyridine-3-sulfonamide], the Ki in assay [1] is more than 1000 nM; in assay [2] it was 100 to 500 nM.

Take `O=S(=O)(c1ccc(N2CCOCC2)nc1)N1CCCC2(CCN(Cc3ccccc3)CC2)C1` [Example 61, 4-(5-((9-Benzyl-2,9-diazaspiro[5.5]undecan-2-yl)sulfonyl)pyridin-2-yl)morpholine]: the figures for the Ki in assay [1] and in assay [2] were 100 to 500 nM and less than 100 nM, respectively.

In the case of `N#Cc1ccc(CN2CCC3(CCCN(S(=O)(=O)c4ccc(N5CCOCC5)nc4)C3)CC2)cc1F` [Example 62, 2-Fluoro-4-((2-((6-morpholinopyridin-3-yl)sulfonyl)-2,9-diazaspiro[5.5]undecan-9-yl)methyl)benzonitrile], the Ki in assay [1] was 100 to 500 nM; in assay [2] it was less than 100 nM.

Regarding `O=S(=O)(c1ccc(N2CCOCC2)nc1)N1CCCC2(CCN(Cc3ccncc3)CC2)C1` [Example 63, 4-(5-((9-(Pyridin-4-ylmethyl)-2,9-diazaspiro[5.5]undecan-2-yl)sulfonyl)pyridin-2-yl)morpholine], the results for the Ki in assay [1] and in assay [2] were 100 to 500 nM and less than 100 nM, respectively.

Turning to `O=S(=O)(c1ccc(N2CCOCC2)nc1)N1CCC[C@H](CNCc2ccc(O)nc2)C1` [Example 64, (R)-5-((((1-((6-Morpholinopyridin-3-yl)sulfonyl)piperidin-3-yl)methyl)amino)methyl)pyridin-2-ol], the Ki in assay [1] is more than 1000 nM; in assay [2], 100 to 500 nM.

`O=S(=O)(c1ccc(N2CCOCC2)nc1)N1CCC[C@@H](CNCc2ccc(O)nc2)C1` [Example 65, (S)-5-((((1-((6-Morpholinopyridin-3-yl)sulfonyl)piperidin-3-yl)methyl)amino)methyl)pyridin-2-ol]: the Ki is more than 1000 nM in assay [1] and 100 to 500 nM in assay [2].

As to `CC(C)(C)CCN1CCC2(CC1)CCN(S(=O)(=O)c1ccc(C(F)(F)F)nc1)CC2` [Example 66, 3-(3,3-Dimethylbutyl)-9-((6-(trifluoromethyl)pyridin-3-yl)sulfonyl)-3,9-diazaspiro[5.5]undecane], the Ki in assay [1] and in assay [2] was less than 100 nM in each case.

Regarding `CC(C)(C)CCN1CCC2(CC1)CCN(S(=O)(=O)c1ccc(C(F)(F)F)nc1)C2` [Example 67, 8-(3,3-Dimethylbutyl)-2-((6-(trifluoromethyl)pyridin-3-yl)sulfonyl)-2,8-diazaspiro[4.5]decane], the Ki in assay [1] and in assay [2] was less than 100 nM throughout.

Turning to `CC(C)(C)CCN1CCC2(CC1)CCN(S(=O)(=O)c1ccc(N3CCC4(CCOC4)CC3)nc1)CC2` [Example 68, 8-(5-((9-(3,3-Dimethylbutyl)-3,9-diazaspiro[5.5]undecan-3-yl)sulfonyl)pyridin-2-yl)-2-oxa-8-azaspiro[4.5]decane], the results for the Ki in assay [1] and in assay [2] were 100 to 500 nM and less than 100 nM, respectively.

For `CC(C)(C)CCN1CCC2(CC1)CCN(S(=O)(=O)c1ccc(N3CCS(=O)(=O)CC3)nc1)CC2` [Example 69, 4-(5-((9-(3,3-Dimethylbutyl)-3,9-diazaspiro[5.5]undecan-3-yl)sulfonyl)pyridin-2-yl)thiomorpholine 1,1-dioxide], the figures for the Ki in assay [1] and in assay [2] were 100 to 500 nM and less than 100 nM, respectively.

On to `CC(C)(C)CCN1CCC2(CC1)CCN(S(=O)(=O)c1ccc(N3CCC(F)(F)CC3)nc1)CC2` [Example 70, 3-((6-(4,4-Difluoropiperidin-1-yl)pyridin-3-yl)sulfonyl)-9-(3,3-dimethylbutyl)-3,9-diazaspiro[5.5]undecane], for which the Ki in assay [1] and in assay [2] was less than 100 nM in each case.

For the molecule `CC(C)(C)CCN1CCC2(CC1)CCN(S(=O)(=O)c1ccc(N3CCC4(CCCO4)CC3)nc1)CC2` [Example 71, 8-(5-((9-(3,3-Dimethylbutyl)-3,9-diazaspiro[5.5]undecan-3-yl)sulfonyl)pyridin-2-yl)-1-oxa-8-azaspiro[4.5]decane], the Ki in assay [1] and in assay [2] was less than 100 nM throughout.

As to `CC(C)(C)CCN1CCC2(CC1)CCN(S(=O)(=O)c1ccc(N3CCC4(CC3)COC4)nc1)CC2` [Example 72, 7-(5-((9-(3,3-Dimethylbutyl)-3,9-diazaspiro[5.5]undecan-3-yl)sulfonyl)pyridin-2-yl)-2-oxa-7-azaspiro[3.5]nonane], the figures for the Ki in assay [1] and in assay [2] were 500 to 1000 nM and less than 100 nM, respectively.

For the molecule `CC(C)CCN1CCC2(CC1)CCN(S(=O)(=O)c1ccc(N3CCC(F)(F)CC3)nc1)CC2` [Example 73, 3-((6-(4,4-Difluoropiperidin-1-yl)pyridin-3-yl)sulfonyl)-9-isopentyl-3,9-diazaspiro[5.5]undecane], the Ki was 100 to 500 nM in assay [1] and less than 100 nM in assay [2].

Turning to `O=S(=O)(c1ccc(N2CCC(F)(F)CC2)nc1)N1CCC2(CCN(Cc3ccccc3)CC2)CC1` [Example 74, 3-Denzyl-9-((6-(4,4-difluoropiperidin-1-yl)pyridin-3-yl)sulfonyl)-3,9-diazaspiro[5.5]undecane], the Ki is 100 to 500 nM in assay [1] and less than 100 nM in assay [2].

As to `CC(C)(C)CCN1CCCC2(CCN(S(=O)(=O)c3ccc(N4CCOCC4)nc3)CC2)C1` [Example 75, 4-(5-((2-(3,3-Dimethylbutyl)-2,9-diazaspiro[5.5]undecan-9-yl)sulfonyl)pyridin-2-yl)morpholine], the Ki in assay [1] and in assay [2] was less than 100 nM each time.

On to `CC(C)(C)CCN1CCCC2(CCN(S(=O)(=O)c3ccc(N4CCC(F)(F)CC4)nc3)CC2)C1` [Example 76, 9-((6-(4,4-Difluoropiperidin-1-yl)pyridin-3-yl)sulfonyl)-2-(3,3-dimethylbutyl)-2,9-diazaspiro[5.5]undecane], for which the Ki in assay [1] and in assay [2] was less than 100 nM in each case.

For the molecule `CC(C)CCN1CCCC2(CCN(S(=O)(=O)c3ccc(N4CCC(F)(F)CC4)nc3)CC2)C1` [Example 77, 9-((6-(4,4-Difluoropiperidin-1-yl)pyridin-3-yl)sulfonyl)-2-isopentyl-2,9-diazaspiro[5.5]undecane], the Ki in assay [1] and in assay [2] was less than 100 nM in each case.

With `CC(C)(C)CCN1CCCC2(CCN(S(=O)(=O)c3ccc(N4CCC5(CCCO5)CC4)nc3)CC2)C1` [Example 78, 8-(5-((2-(3,3-Dimethylbutyl)-2,9-diazaspiro[5.5]undecan-9-yl)sulfonyl)pyridin-2-yl)-1-oxa-8-azaspiro[4.5]decane], the inhibition constant Ki in assay [1] and in assay [2] was less than 100 nM each time.

Consider `CC(C)(C)CCN1CCC2(CC1)CCN(S(=O)(=O)c1ccc(N3CCOCC3)nc1)C2` [Example 79, 4-(5-((8-(3,3-Dimethylbutyl)-2,8-diazaspiro[4.5]decan-2-yl)sulfonyl)pyridin-2-yl)morpholine], for which the values for the Ki in assay [1] and in assay [2] were 100 to 500 nM and less than 100 nM, respectively.

As to `CC(C)(C)CCN1CCC2(CC1)CCN(S(=O)(=O)c1ccc(N3CCC(F)(F)CC3)nc1)C2` [Example 80, 2-((6-(4,4-Difluoropiperidin-1-yl)pyridin-3-yl)sulfonyl)-8-(3,3-dimethylbutyl)-2,8-diazaspiro[4.5]decane], the Ki in assay [1] and in assay [2] was less than 100 nM each time.

Take `CC(C)(C)CCN1CCC2(CC1)CCN(S(=O)(=O)c1ccc(N3CCC4(CCCO4)CC3)nc1)C2` [Example 81, 8-(5-((8-(3,3-Dimethylbutyl)-2,8-diazaspiro[4.5]decan-2-yl)sulfonyl)pyridin-2-yl)-1-oxa-8-azaspiro[4.5]decane]: the Ki in assay [1] and in assay [2] was less than 100 nM each time.

As to `O=S(=O)(c1ccc(N2CCC(F)(F)CC2)nc1)N1CCC2(CCN(Cc3ccccc3)CC2)C1` [Example 82, 8-Benzyl-2-((6-(4,4-difluoropiperidin-1-yl)pyridin-3-yl)sulfonyl)-2,8-diazaspiro[4.5]decane], the Ki in assay [1] and in assay [2] was less than 100 nM each time.

In the case of `O=S(=O)(c1ccc(N2CCC(F)(F)CC2)nc1)N1CCC2(CCN(CC3CCOCC3)CC2)C1` [Example 83, 2-((6-(4,4-Difluoropiperidin-1-yl)pyridin-3-yl)sulfonyl)-8-((tetrahydro-2H-pyran-4-yl)methyl)-2,8-diazaspiro[4.5]decane], the Ki in assay [1] and in assay [2] was less than 100 nM in each case.

For `O=S(=O)(c1ccc(N2CCC(F)(F)CC2)nc1)N1CCC2(CCCN(CC3CCOCC3)C2)CC1` [Example 84, 9-((6-(4,4-Difluoropiperidin-1-yl)pyridin-3-yl)sulfonyl)-2-((tetrahydro-2H-pyran-4-yl)methyl)-2,9-diazaspiro[5.5]undecane], the Ki was less than 100 nM in assay [1] and 100 to 500 nM in assay [2].
